# Molecular target: T1, sGC α1/β1 heterodimer (Homo sapiens, UniProt Q02108+Q02153)
# T1 construct: expressed in transfected cells
# T1 sequence (Q02108 1-690): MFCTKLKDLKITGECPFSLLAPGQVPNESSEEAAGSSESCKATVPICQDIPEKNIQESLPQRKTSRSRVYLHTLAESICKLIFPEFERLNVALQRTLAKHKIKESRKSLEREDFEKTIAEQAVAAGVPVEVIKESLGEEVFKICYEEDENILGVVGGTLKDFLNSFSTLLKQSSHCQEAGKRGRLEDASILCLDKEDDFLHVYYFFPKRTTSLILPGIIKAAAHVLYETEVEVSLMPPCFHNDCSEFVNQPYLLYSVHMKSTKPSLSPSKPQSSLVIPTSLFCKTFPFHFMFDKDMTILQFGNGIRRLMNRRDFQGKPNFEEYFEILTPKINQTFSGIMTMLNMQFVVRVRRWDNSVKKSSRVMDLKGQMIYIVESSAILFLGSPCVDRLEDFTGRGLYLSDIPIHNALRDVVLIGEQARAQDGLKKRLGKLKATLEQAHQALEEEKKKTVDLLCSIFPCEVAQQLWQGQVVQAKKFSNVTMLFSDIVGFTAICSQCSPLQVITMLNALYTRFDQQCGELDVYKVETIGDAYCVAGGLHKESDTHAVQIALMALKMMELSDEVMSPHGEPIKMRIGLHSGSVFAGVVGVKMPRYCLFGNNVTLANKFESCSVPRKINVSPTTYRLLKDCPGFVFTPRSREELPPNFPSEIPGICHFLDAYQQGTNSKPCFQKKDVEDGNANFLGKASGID
# T1 sequence (Q02153 1-619): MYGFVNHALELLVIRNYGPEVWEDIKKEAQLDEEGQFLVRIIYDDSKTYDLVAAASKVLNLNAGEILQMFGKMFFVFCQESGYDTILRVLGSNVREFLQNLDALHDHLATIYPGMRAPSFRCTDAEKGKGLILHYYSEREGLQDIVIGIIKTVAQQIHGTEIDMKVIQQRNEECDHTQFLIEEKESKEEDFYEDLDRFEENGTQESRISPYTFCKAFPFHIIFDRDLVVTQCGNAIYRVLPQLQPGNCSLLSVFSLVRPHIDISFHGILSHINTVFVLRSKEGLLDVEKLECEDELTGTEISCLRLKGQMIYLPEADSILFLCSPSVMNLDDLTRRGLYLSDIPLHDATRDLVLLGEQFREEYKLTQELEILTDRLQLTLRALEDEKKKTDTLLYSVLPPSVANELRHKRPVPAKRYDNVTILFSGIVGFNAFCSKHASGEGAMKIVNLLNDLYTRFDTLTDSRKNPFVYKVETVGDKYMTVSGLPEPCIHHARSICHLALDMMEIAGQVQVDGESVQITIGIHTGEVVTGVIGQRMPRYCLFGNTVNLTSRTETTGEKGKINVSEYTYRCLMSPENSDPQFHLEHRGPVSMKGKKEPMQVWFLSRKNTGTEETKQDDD
# Test: Cell-Based sGC Functional Assay (CASA Assay), cGMP generation in CHO-K1/sGC cells;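 also: reference Compound A is a published heme-dependent sGC activator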
# Conditions: maximum cGMP production of Compound A set to 100% activation, read-out: % Act. (percent activation relative to Compound A)
# Procedure, shortened: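 Intracellular cGMP quantified by HTRF competition after 1 h, 37 °C compound exposure, with or without 1 μM DETA-NO, in stable CHO-K1/sGC α1/β1 cells (4×10^5/mL; buffer with 0.5 mM IBMX, 5 mM MgCl2, 10 mM HEPES, 0.05% BSA; 2.5% DMSO). Activation normalized to reference Compound A maximum; 4P fit.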
row,SMILES,Emax [%]
1,"CC1(c2nnc(C(F)F)o2)C(=O)Nc2nc(-c3cn4ncnc4c(CCCC(F)(F)F)n3)nc(N)c21 (stereo not drawn) [Example 100A, 4-amino-5-(5-(difluoromethyl)-1,3,4-oxadiazol-2-yl)-5-methyl-2-(8-(4,4,4-trifluorobutyl)-[1,2,4]triazolo[1,5-a]pyrazin-6-yl)-5H-pyrrolo[2,3-d]pyrimidin-6(7H)-one]",184
2,"CCCCc1nc(-c2nc(N)c3c(n2)NC(=O)C3(c2ccc(F)cn2)C2CC2)cn2ncnc12 (stereo not drawn) [Example 66A, 4-amino-2-(8-butyl-[1,2,4]triazolo[1,5-a]pyrazin-6-yl)-5-cyclopropyl-5-(5-fluoropyridin-2-yl)-5H-pyrrolo[2,3-d]pyrimidin-6(7H)-one]",162
3,"CCCCc1nc(-c2nc(N)c3c(n2)NC(=O)C3(C)c2nnc(C(F)(F)F)o2)cn2ncnc12 (stereo not drawn) [Example 102A, 4-amino-2-(8-butyl-[1,2,4]triazolo[1,5-a]pyrazin-6-yl)-5-methyl-5-(5-(trifluoromethyl)-1,3,4-oxadiazol-2-yl)-5H-pyrrolo[2,3-d]pyrimidin-6(7H)-one]",132
4,"O=C1Nc2nc(-c3cn4ncnc4c(CCCC(F)(F)F)n3)nc(O)c2C1(c1ccc(C(F)(F)F)cc1)C1CC1 (stereo not drawn) [Example 144A, 5-cyclopropyl-4-hydroxy-2-(8-(4,4,4-trifluorobutyl)-[1,2,4]triazolo[1,5-a]pyrazin-6-yl)-5-(4-(trifluoromethyl)phenyl)-5H-pyrrolo[2,3-d]pyrimidin-6(7H)-one]",87
5,"CCCc1nc(-c2nc(N)c3c(n2)NC(=O)C3(C)c2ccc(F)cn2)cn2nc(C)nc12 (stereo not drawn) [Example 92B, 4-amino-5-(5-fluoropyridin-2-yl)-5-methyl-2-(2-methyl-8-propyl-[1,2,4]triazolo[1,5-a]pyrazin-6-yl)-5H-pyrrolo[2,3-d]pyrimidin-6(7H)-one]",167
6,"Nc1nc(-c2cn3ncnc3c(CCC(F)(F)C(F)(F)F)n2)nc2c1C(c1ccc(F)c(F)c1)(C1CC1)C(=O)N2 (stereo not drawn) [Example 6A, 4-amino-5-cyclopropyl-5-(3,4-difluorophenyl)-2-(8-(3,3,4,4,4-pentafluorobutyl)-[1,2,4]triazolo[1,5-a]pyrazin-6-yl)-5H-pyrrolo[2,3-d]pyrimidin-6(7H)-one]",140
7,"Cc1nc2c(CCC(F)(F)C(F)(F)F)nc(-c3nc(N)c4c(n3)NC(=O)C4(C)c3ccc(F)cn3)cn2n1 (stereo not drawn) [Example 89B, 4-amino-5-(5-fluoropyridin-2-yl)-5-methyl-2-(2-methyl-8-(3,3,4,4,4-pentafluorobutyl)-[1,2,4]triazolo[1,5-a]pyrazin-6-yl)-5H-pyrrolo[2,3-d]pyrimidin-6(7H)-one]",109
8,"N#Cc1ccc(C2(C3CC3)C(=O)Nc3nc(-c4cn5ncnc5c(CCC(F)(F)C(F)(F)F)n4)nc(N)c32)nc1 (stereo not drawn) [Example 118A, 6-(4-Amino-5-cyclopropyl-6-oxo-2-(8-(3,3,4,4,4-pentafluorobutyl)-[1,2,4]triazolo[1,5-a]pyrazin-6-yl)-6,7-dihydro-5H-pyrrolo[2,3-d]pyrimidin-5-yl)nicotinonitrile]",72
9,"Nc1nc(-c2cn3ncnc3c(CCCC(F)(F)F)n2)nc2c1C(c1nnc(C3(F)CC3)o1)(C1CC1)C(=O)N2 (stereo not drawn) [Example 108A, 4-amino-5-cyclopropyl-5-(5-(1-fluorocyclopropyl)-1,3,4-oxadiazol-2-yl)-2-(8-(4,4,4-trifluorobutyl)-[1,2,4]triazolo[1,5-a]pyrazin-6-yl)-5H-pyrrolo[2,3-d]pyrimidin-6(7H)-one]",107
10,"CCCCc1nc(-c2nc(O)c3c(n2)NC(=O)C3(C)c2ccc(Cl)cc2)cn2ncnc12 (stereo not drawn) [Example 157A, 2-(8-butyl-[1,2,4]triazolo[1,5-a]pyrazin-6-yl)-5-(4-chlorophenyl)-4-hydroxy-5-methyl-5H-pyrrolo[2,3-d]pyrimidin-6(7H)-one]",161
11,"CC1(c2ccc(F)c(F)c2)C(=O)Nc2nc(-c3cn4ncnc4c(CCCC(F)(F)F)n3)nc(N)c21 (stereo not drawn) [Example 38B, 4-amino-5-(3,4-difluorophenyl)-5-methyl-2-(8-(4,4,4-trifluorobutyl)-[1,2,4]triazolo[1,5-a]pyrazin-6-yl)-5H-pyrrolo[2,3-d]pyrimidin-6(7H)-one]",120
12,"CCCc1nc(-c2nc(N)c3c(n2)NC(=O)[C@@]3(C)c2ccc(F)cc2)cn2nc(C)nc12 [Example 91A, (S)-4-amino-5-(4-fluorophenyl)-5-methyl-2-(2-methyl-8-propyl-[1,2,4]triazolo[1,5-a]pyrazin-6-yl)-5,7-dihydro-6H-pyrrolo[2,3-d]pyrimidin-6-one]",105
13,"CC1(c2ccc(F)cn2)C(=O)Nc2nc(-c3cn4ncnc4c(CCCC(F)(F)F)n3)nc(N)c21 (stereo not drawn) [Example 22B, 4-amino-5-(5-fluoropyridin-2-yl)-5-methyl-2-(8-(4,4,4-trifluorobutyl)-[1,2,4]triazolo[1,5-a]pyrazin-6-yl)-5H-pyrrolo[2,3-d]pyrimidin-6(7H)-one]",130
14,"Cc1nc2c(CCC(F)(F)C(F)(F)F)nc(-c3nc(O)c4c(n3)NC(=O)[C@@]4(C)c3ccc(F)cc3)cn2n1 [Example 133B, (S)-5-(4-fluorophenyl)-4-hydroxy-5-methyl-2-(2-methyl-8-(3,3,4,4,4-pentafluorobutyl)-[1,2,4]triazolo[1,5-a]pyrazin-6-yl)-5H-pyrrolo[2,3-d]pyrimidin-6(7H)-one]",87
15,"C[C@@]1(c2ccc(F)cc2)C(=O)Nc2nc(-c3cn4ncnc4c(Cc4ccc(F)cc4)n3)nc(O)c21 [Example 162B, (S)-2-(8-(4-fluorobenzyl)-[1,2,4]triazolo[1,5-a]pyrazin-6-yl)-5-(4-fluorophenyl)-4-hydroxy-5-methyl-5H-pyrrolo[2,3-d]pyrimidin-6(7H)-one]",100
16,"CC1(c2ccc(F)cn2)C(=O)Nc2nc(-c3cn4ncnc4c(CCC(F)(F)F)n3)nc(N)c21 (stereo not drawn) [Example 81B, 4-amino-5-(5-fluoropyridin-2-yl)-5-methyl-2-(8-(3,3,3-trifluoropropyl)-[1,2,4]triazolo[1,5-a]pyrazin-6-yl)-5H-pyrrolo[2,3-d]pyrimidin-6(7H)-one]",115
17,"Cc1nnc(C2(C)C(=O)Nc3nc(-c4cn5ncnc5c(CCC(F)(F)C(F)(F)F)n4)nc(N)c32)o1 (single isomer, unassigned) [Example 97B, 4-Amino-5-methyl-5-(5-methyl-1,3,4-oxadiazol-2-yl)-2-(8-(3,3,4,4,4-pentafluorobutyl)-[1,2,4]triazolo[1,5-a]pyrazin-6-yl)-5H-pyrrolo[2,3-d]pyrimidin-6(7H)-one]",106
18,"CC(F)(F)c1ccc(C2(C)C(=O)Nc3nc(-c4cn5ncnc5c(CCCC(F)(F)F)n4)nc(N)c32)cn1 (racemic) [Example 45B, 4-amino-5-(6-(1,1-difluoroethyl)pyridin-3-yl)-5-methyl-2-(8-(4,4,4-trifluorobutyl)-[1,2,4]triazolo[1,5-a]pyrazin-6-yl)-5H-pyrrolo[2,3-d]pyrimidin-6(7H)-one]",156
19,"CC1(c2ccc(Cl)cn2)C(=O)Nc2nc(-c3cn4ncnc4c(CCCC(F)(F)F)n3)nc(N)c21 (stereo not drawn) [Example 26A, 4-amino-5-(5-chloropyridin-2-yl)-5-methyl-2-(8-(4,4,4-trifluorobutyl)-[1,2,4]triazolo[1,5-a]pyrazin-6-yl)-5H-pyrrolo[2,3-d]pyrimidin-6(7H)-one]",162
20,"CC1(c2cnc(C(F)(F)F)cn2)C(=O)Nc2nc(-c3cn4ncnc4c(CCCC(F)(F)F)n3)nc(N)c21 (stereo not drawn) [Example 50B, 4-amino-5-methyl-2-(8-(4,4,4-trifluorobutyl)-[1,2,4]triazolo[1,5-a]pyrazin-6-yl)-5-(5-(trifluoromethyl)pyrazin-2-yl)-5H-pyrrolo[2,3-d]pyrimidin-6(7H)-one]",191
21,"COc1ccc(C2(C)C(=O)Nc3nc(-c4cn5ncnc5c(CCCC(F)(F)F)n4)nc(N)c32)nc1 (stereo not drawn) [Example 40A, 4-amino-5-(5-methoxypyridin-2-yl)-5-methyl-2-(8-(4,4,4-trifluorobutyl)-[1,2,4]triazolo[1,5-a]pyrazin-6-yl)-5H-pyrrolo[2,3-d]pyrimidin-6(7H)-one]",130

# Reference: patent US10925876B2, “Methods for using triazolo-pyrazinyl soluble guanylate cyclase activators in fibrotic disorders” (Merck Sharp & Dohme Corp., priority 2016, dated 2021)
